Patent publication US12139458B2, “(2,5-dioxopyrrolidin-1-yl)(phenyl)-acetamide derivatives and their use in the treatment of neurological diseases” (UNIWERSYTET JAGIELLONSKI, priority 2019, dated 2024)

Key:
[1] = test system: male Swiss albino mice (CD-1); assay: Psychomotor seizure test 6 Hz (44 mA); assay type: in vivo; conditions: 0.5 h, mice; for 6 Hz (44 mA): number of mice protected/number of mice tested: screening, 100 mg/kg i.p.; for ED50: Mus musculus, ip
Procedure: (§1) All procedures were carried out in accordance with applicable Polish and international guidelines on the ethics of animal testing, after obtaining appropriate institutional approval. The substances were administered intraperitoneally (i.p.), in 1% aqueous solution of Tween, as single injections with a volume of 10 ml/kg, 30 minutes before the given test. Screening was performed on groups consisted of 4 mice. […] All tests were carried out based on the procedures described in the specialist literature.
In the 6 Hz test, seizures were induced by an electric stimulus of 32 mA and/or 44 mA and a frequency of 6 pulses per second. […] Before starting the test, the eye surface was gently moistened with a solution of local anesthetic (1% lidocaine solution). The study was conducted 30 minutes after intraperitoneal administration of the compounds at various doses. An electrical pulse was delivered continuously for a period of 3 seconds, followed by observation of the animal for a period of 10 seconds. During this time, immobility or stun associated with rearing, forelimb clonus, twitching of the vibrissae and Straub's tail were observed. These symptoms persist throughout the observation period, indicating the occurrence of psychomotor seizures in mice.
(§2) To perform a statistical evaluation of the results, one-way ANOVA variance analysis and Dunnett's post hoc test (multiple comparison test) were used. The value at the significance level p<0.05 was considered statistically significant.

[2] = test system: male Swiss albino mice (CD-1); assay: Subcutaneous pentylenetetrazole seizure test (scPTZ); assay type: in vivo; conditions: 0.5 h, mice; for ED50 / responders at 100 mg/kg: Mus musculus, ip; for scPTZ: number of mice protected/number of mice tested / responders at 100 mg/kg: screening, 100 mg/kg i.p.; for responders at 100 mg/kg: read-out: scPTZ: number of mice protected/number of mice tested (converted)
Procedure: (§3) The male Swiss albino mice (CD-1) weighing 18-26 g were used. All procedures were carried out in accordance with applicable Polish and international guidelines on the ethics of animal testing, after obtaining appropriate institutional approval. The substances were administered intraperitoneally (i.p.), in 1% aqueous solution of Tween, as single injections with a volume of 10 ml/kg, 30 minutes before the given test. Screening was performed on groups consisted of 4 mice. The average effective dose (ED50) in given test and toxic dose in the rotarod test (TD50) was estimated based on the results obtained in 3-4 groups of animals consisting of 6 mice. All tests were carried out based on the procedures described in the specialist literature.
In the scPTZ test, seizures were induced by subcutaneous administration of pentylenetetrazole (PTZ) at a dose of 100 mg/kg. This caused clonic seizures with accompanying loss of the righting reflex. Test compounds were administered 30 minutes before the experiment. After PTZ administration, the animals were placed individually in transparent containers and observed for a period of 30 minutes for the occurrence of clonic seizures. During this time, the latency of the first onset of clonic seizures, defined as clonus of the whole body lasting at least 3 seconds with loss of the righting reflex and the number of seizure episodes during the test were noted and compared with control group. The absence of clonic convulsions within the observed time period was interpreted as the compound's ability to protect against PTZ-induced seizures (Ferreri, G.; Chimirri, A.; Russo, E.; Gitto, R.; Gareri, P.; De Sarro, A.; De Sarro, G. Pharmacol. Biochem. Behav. 2004, 77, 85-94; Łączkowski, K.; Sałat, K.; Misiura, K.; Podkowa, A.; Malikowska, N. J. Enzyme Inhib. Med. Chem. 2016, 31, 1576-82).
as §2

[3] = test system: male Swiss albino mice (CD-1); assay: Psychomotor seizure test 6 Hz (32 mA); assay type: in vivo; conditions: Mus musculus, ip, 0.5 h, mice; for responders at 100 mg/kg: screening, 100 mg/kg i.p., read-out: 6 Hz (32 mA): number of mice protected/number of mice tested (converted)
Procedure: as §3
In the 6 Hz test, seizures were induced by an electric stimulus of 32 mA and/or 44 mA and a frequency of 6 pulses per second. An electrical pulse was generated using an electric shock generator (ECT Unit 57800; Ugo Basile, Gemonio, Italy) and delivered to the animal using ocular electrodes. Before starting the test, the eye surface was gently moistened with a solution of local anesthetic (1% lidocaine solution). The study was conducted 30 minutes after intraperitoneal administration of the compounds at various doses. An electrical pulse was delivered continuously for a period of 3 seconds, followed by observation of the animal for a period of 10 seconds. During this time, immobility or stun associated with rearing, forelimb clonus, twitching of the vibrissae and Straub's tail were observed. These symptoms persist throughout the observation period, indicating the occurrence of psychomotor seizures in mice. Mice resuming normal behavior within 10 s after stimulation were considered as protected (Barton, M. E.; Klein, B. D.; Wolf, H. H.; White, H. S. Epilepsy Res. 2001, 47, 217-227; Wojda, E.; Wlaź, A.; Patsalos, P. N.; Łuszczki, J. J. Epilepsy Res. 2009, 86, 163-174).
as §2

[4] = Rotarod test (motor coordination); assay type: in vivo; conditions: male, Swiss albino (CD-1), mouse, in vivo, ip, mice
Procedure: as §1
Mice were trained the day before the actual experiment. They were placed individually on a 2 cm diameter rod rotating at 10 revolutions per minute (rpm). During each training session, the animals remained on the rod for 3 minutes. The experiment was carried out 30 minutes after administration of the compounds. Motor coordination was tested at the speed of the rotating bar: 10 rpm during 60 seconds. Motor impairments were defined as the inability to remain on the rotating rod for 1 min.
as §2

[5] = test system: male Swiss albino mice (CD-1); assay: Maximal electroshock seizure test (MES); assay type: in vivo; conditions: 0.5 h, mice; for ED50 / responders at 100 mg/kg: Mus musculus, ip; for MES: number of mice protected/number of mice tested / responders at 100 mg/kg: screening, 100 mg/kg i.p.; for responders at 100 mg/kg: read-out: MES: number of mice protected/number of mice tested (converted)
Procedure: as §3
In the MES test, the seizures were induced by an electrical stimulus lasting of 0.2 s duration, 500 V voltage and 25 mA intensity. The electrical stimuli was generated using an electric shock generator (Rodent shocker, Type 221, Hugo Sachs Elektronik, Germany) and delivered to the animal using electrodes placed on the auricles. The study was conducted 30 minutes after intraperitoneal administration of the compounds at various doses. During the experiment, the number of animals that experienced a seizure episode in the form of tonic extension of the hind limbs was counted (Kamiński, K.; Rapacz, A.; Łuszczki, J. J.; Latacz, G.; Obniska, J.; Kieć-Kononowicz, K.; Filipek, B. Bioorg. Med. Chem. 2015, 23, 2548-2561; Castel-Branco, M. M.; Alves, G. L.; Figueiredo, I. V.; Falcão, A. C.; Caramona, M. M. Methods Find. Exp. Clin. Pharmacol. 2009, 31, 101-106).
as §2

[6] = Metabolic stability in human liver microsomes; assay type: in vitro ADME
Procedure: Metabolic stability. The metabolic stability of compound 6 was evaluated using human liver microsomes (HLMs). Internal clearance values CLint were calculated by monitoring changes in compound concentration in the presence of microsomes per unit of time, according to the procedure proposed by Obach R. S. (Obach, R. S. Drug Metab. Dispos. 1999, 27, 1350-1359).
Metabolic stability tests—methodology. Metabolic stability studies for compound 6 were performed using HLMs (Promega, Madison, WI, USA). For this purpose, 10 μL of compound 6 at a concentration of 1000 μM was diluted with 132 μL with tris-HCl buffer (100 mM, pH 7.4), followed by the addition of 8 μL of appropriate microsomes. The reaction mixture was preincubated at 37° C. for 5 minutes, followed by the addition of 50 μL of NADPH Regeneration System, supplied by Promega (Madison, WI, USA). After mixing, the whole mixture was incubated at 37° C. for 120 minutes. To complete the reaction, 200 μL of cold methanol was added to the tubes and centrifuged. The supernatant was subjected to UPLC/MS analysis, including fragmentation analysis. Four mixtures of 6 with HLMs were prepared to determine the internal clearance CLint. Each of these reactions was completed at a different time point, after 5, 15, 30 and 45 min, by the addition of cold methanol containing 50 μM internal standard. Then, according to literature guidelines (Obach, R. S. Drug Metab. Dispos. 1999, 27, 1350-1359), based on the plot of the relationship between the height of the peak from 6 and the height of the internal standard, the regression equation was determined and the reaction rate constant k was calculated. Then the constant k was substituted to equation (1).
The calculated t1/2 value was then substituted into equation (2): […]

SMILES: Cc1cccc(N2CCN(C(=O)C(c3ccccc3)N3C(=O)CCC3=O)CC2)c1 (racemic) [Compound 5, 1-(2-Oxo-1-phenyl-2-(4-(m-tolyl)piperazin-1-yl)ethyl)pyrrolidine-2,5-dione]
- 6 Hz (44 mA): number of mice protected/number of mice tested [1]: 2/4
- melting point: 188.7 to 192.1 °C
- ED50 [2]: 57.6 mg/kg
- scPTZ: number of mice protected/number of mice tested [2]: ¾
- ED50 [3]: 35.5 mg/kg
- responders at 100 mg/kg [3]: 100%
- TD50 at 0.5 h [4]: 171 mg/kg
- ED50 [5]: 37.2 mg/kg
- MES: number of mice protected/number of mice tested [5]: ¾

SMILES: O=C(C(c1ccccc1)N1C(=O)CCC1=O)N1CCN(c2cccc(C(F)F)c2)CC1 (racemic) [Compound 9, 1-(2-Oxo-1-phenyl-2-(4-(3-(difluoromethyl)phenyl)piperazin-1-yl)ethyl)pyrrolidine-2,5-dione]
- ED50 [1]: 196 mg/kg
- melting point: 156.4 to 157.6 °C
- ED50 [2]: 94.3 mg/kg
- ED50 [3]: 63 mg/kg
- TD50 at 0.5 h [4]: 274 mg/kg
- ED50 [5]: 97.7 mg/kg

SMILES: O=C(C(c1ccccc1)N1C(=O)CCC1=O)N1CCN(c2cccc(OC(F)(F)F)c2)CC1 (racemic) [Compound 10, 1-(2-Oxo-1-phenyl-2-(4-(3-(trifluoromethoxy)phenyl)piperazin-1-yl)ethyl)pyrrolidine-2,5-dione]
- 6 Hz (44 mA): number of mice protected/number of mice tested [1]: ¾
- melting point: 100.3 to 101.6 °C
- ED50 [2]: < 60 mg/kg
- responders at 100 mg/kg [2]: 50%
- ED50 [3]: 38.3 mg/kg
- responders at 100 mg/kg [3]: 100%
- TD50 at 0.5 h [4]: 74 mg/kg
- ED50 [5]: 41.7 mg/kg
- responders at 100 mg/kg [5]: 100%

SMILES: O=C(C(c1ccccc1)N1C(=O)CCC1=O)N1CCN(c2cccc(-c3ccccc3)c2)CC1 (racemic) [Compound 13, 1-(2-(4-([1,1′-Biphenyl]-3-yl)piperazin-1-yl)-2-oxo-1-phenylethyl)pyrrolidine-2,5-dione]
- 6 Hz (44 mA): number of mice protected/number of mice tested [1]: 4/4
- melting point: 114.1 to 115.4 °C
- ED50 [2]: < 100 mg/kg
- responders at 100 mg/kg [2]: 50%
- ED50 [3]: 26.2 mg/kg
- responders at 100 mg/kg [3]: 100%
- TD50 at 0.5 h [4]: 73.6 mg/kg
- ED50 [5]: 43.9 mg/kg
- responders at 100 mg/kg [5]: 100%

SMILES: O=C(C(c1ccccc1)N1C(=O)CCC1=O)N1CCC(c2cccc(C(F)(F)F)c2)CC1 (racemic) [Compound 19, 1-(2-Oxo-1-phenyl-2-(4-(3-(trifluoromethyl)phenyl)piperidin-1-yl)ethyl)pyrrolidine-2,5-dione]
- 6 Hz (44 mA): number of mice protected/number of mice tested [1]: 2/4
- melting point: 100.1 to 101.5 °C
- ED50 [2]: < 100 mg/kg
- responders at 100 mg/kg [2]: 100%
- scPTZ: number of mice protected/number of mice tested ([2]; 100 mg/kg): ¾
- ED50 [3]: 41 mg/kg
- responders at 100 mg/kg [3]: 100%
- TD50 at 0.5 h [4]: 254 mg/kg
- ED50 [5]: 81.8 mg/kg
- responders at 100 mg/kg [5]: 100%
- MES: number of mice protected/number of mice tested [5]: ¾

SMILES: O=C([C@@H](c1ccccc1)N1C(=O)CCC1=O)N1CCN(c2cccc(C(F)(F)F)c2)CC1 [(R)-6, (R)-1-(2-Oxo-1-phenyl-2-(4-(3-(trifluoromethyl)phenyl)piperazin-1-yl)ethyl) pyrrolidine-2,5-dione]
- ED50 [1]: 115 mg/kg
- 6 Hz (44 mA): number of mice protected/number of mice tested [1]: ¾
- ED50 [2]: 54.8 mg/kg
- scPTZ: number of mice protected/number of mice tested [2]: ¾
- ED50 [3]: 39.1 mg/kg
- responders at 100 mg/kg [3]: 100%
- metabolites found by UPLC after incubation with HLMs ([6]; 120 min incubation, UPLC/MS): two metabolites
- CLint scaled at 50 µM ([6]; human, human liver microsomes, pH 7.4, incubation with HLMs, read-out: internal clearance CLint): 0.144 L/h/kg
- TD50 at 0.5 h [4]: 468 mg/kg
- ED50 [5]: 36 mg/kg
- responders at 100 mg/kg [5]: 100%
